Consider two compounds from patent US6583127B1, “Use of etherlysophospholipids as antiinflammatory agents” (Inkeysa. SA, priority 1998, dated 2003).

The subject of assay [1] is PGE2 production in murine fibroblasts 3T3. The assay can be described thus: PGE2 measurement in 3T3 cells (enzyme immunoassay). In kind it is cell-based, Mouse. The method, then: Cell culture. Human promyelocytic HL-60 cells and promonocytic U937 cells were grown in RPMI-1640 culture medium supplemented with 10% (v/v) heat-inactivated fetal calf serum, 2 mM L-glutamine, 100 units/ml penicillin and 24 μg/ml gentamicin. Mouse 3T3 fibroblasts were grown in Dulbecco's modified Eagle's medium (DMEM) supplemented with 10% (v/v) heat-inactivated fetal calf serum, 2 mM L-glutamine, 100 units/ml penicillin and 24 μg/ml gentamicin. Cells were incubated at 37° C. in a humidified atmosphere at 5% CO2 and 95% air.
Prostaglandin E2 (PGE2) measurement. 3T3 cells (1.5×10^5 in 100 μl in complete DMEM culture medium) were incubated overnight at 37° C. (5% CO2) in 96-well microtitre plates (tissue-culture grade). Then, the distinct agents were added in 100 μl complete DMEM culture medium for 20 min at 37° C. After washing thoroughly the cells with PBS, cells were lysed and intracellular PGE2 was measured using an enzyme immunoassay kit (Amersham Pharmacia Biotech, Buckinghamshire, UK) following the manufacturer's instructions. Data obtained in duplicate measurements were converted into actual amounts of PGE2 using a calibration curve run in parallel with defined amounts of PGE2.

The subject of assay [2] is bentonite-induced skin edema in mice. The assay can be described thus: Bentonite-induced skin edema in mice. The assay is classed as in vivo. The following applies: mice, 2 mg/kg orally daily for 21 days. The source says:
Mice were individually identified with an ear code and were kept in groups of 6 per cage (Makrolon: 47.6×22.7×14.5 cm). Each cage was individually labelled with the n^o. of the study, type of treatment, doses used and route of administration, as well as the name of the director of the study, number and gender of contained animals, date of arrival and of the beginning of the experiment.
The animals had free access to mouse standard chow (UAR A04C; Usine d'Alimentation Rationelle, 91360-Villemoisson sur Orge, Francia; lot nos. 70520 and 70722). Drinking water access was ad libitum. The water, supplied by the Compañia de Aguas de Sabadell, S.A., is routinely analysed for the presence of possible contaminants. The temperature in the animal rooms was 22±3° C., with sporadic peaks of 26° C.; air humidity was 60±10%, with sporadic peaks of 80%. Daily light (between 7:00 h and 19:00 h) and dark phases were installed automatically.
Upon arrival, all animals were allowed to rest in the facilities for 8 days before use in the experiment. Table 2 indicates the six random groups of 10 mice each were set for experimentation.
The diameter of both hind pads of all mice was measured at day 0 and set as the basal value. Edema was then induced by injecting s.c. 13.3 mg/ml bentonite in 0.03 ml PBS into the right food pad. The corresponding mice were given daily the different compounds orally for 21 days. The inflamed control group was given 0.2 ml PBS only. The diameter of hind pads, as well as the body weight, was then measured every other day.
In each experimental group the average value, the standard deviation (SD) and the standard error was determined for the two parameters studied (hind pad diameter and body weight). The factor variance analysis (FVA) was used to compare the values obtained in the different groups. Where statistically significant differences were observed, the Duncan-Kramer test for a p<0.05 was applied.
The area below the curves corresponding to the diameters of the right and left pads was calculated and the evolution of the difference between them were plotted (FIGS. 7 and 8). The anti-inflammatory capacity of the different substances was evaluated as the extent of inhibition of the inflammatory process that was calculated with the formula [formula]
where C is the area below the inflammed control group and T the area below the different treatment groups.

The test system of assay [3] is PGE2 synthesis in human mucosal gastric biopsies. The assay can be described thus: Ex vivo PGE2 synthesis in human mucosal gastric biopsies. The method, then: The ability of the gastric mucosa to generate prostaglandins estimates total cyclooxygenase (COX) activity (COX-1 plus any COX-2). To measure ex vivo prostaglandin E2 (PGE2) synthesis, normal gastric mucosal biopsies were immediately placed in Ependorff tubes containing phosphate-buffered saline (PBS). […] Each mucosal gastric biopsy was cut into different pieces (about 1 mg weight) that were subsequently weighed and incubated in the absence or in the presence of the distinct agents indicated in the corresponding Table for 20 min at 37° C. in 200 μl Hepes-glucose buffer. Then cells were mucosal gastric samples were pelleted by centrifugation, lysed and intracellular PGE2 was measured using an enzyme immunoassay kit (Amersham Pharmacia Biotech, Buckinghamshire, UK) following the manufacturer's instructions. Prostaglandin synthesis is expressed as picograms of PGE2 synthesised per mg of tissue incubation. Each experiment corresponded to the use of one biopsy, in order to avoid variability among different biopsies. Normal volunteers without a previous pharmacological treatment were selected for these assays. The normal gastroduodenal mucosa was visually assessed by endoscopy.
Human mucosal gastric biopsies were cut into about 1 mg pieces, incubated with the indicted agents (10 μM) for 20 min at 37° C. in Hepes-glucose buffer, and then the intracellular content of PGE2 was determined as described in the Methods section. Untreated control samples were run in parallel. Data are shown as mean Values+S.D. from three independent experiments.

The subject of assay [4] is L-selectin (CD62L). The following applies: literature value, González-Alvaro et al., J. Rheumatol., 23, 723 (1996); cited from earlier work.
Assay [5] has as its system L-selectin (CD62L). The assay can be described thus: Cell surface expression of L-selectin in human neutrophils (immunofluorescence flow cytometry). The following applies: converted from μg/ml values; read-out: IC50 for L-selectin down-regulation, corrected for molecular weight. The assay is classed as cell-based. The source says:
Isolation and treatment of neutrophils.
Monoclonal antibodies. […] The antibodies are commercially available.
Immunofluorescence flow cytometry. […] Results were expressed as relative MFI (rMFI), such that
rMFI=(MFIagent×100)/MFImedium
Background fluorescence was substracted from all values.
A general note: Flow cytometry measures light scatter and fluorescence of single cells or particles in a stream.

In the case of `COc1ccc2c(c1)c(CC(=O)O)c(C)n2C(=O)c1ccc(Cl)cc1` [Indomethacin, reference compound], the “pg PGE2 (intracellular)” value in assay [1] (3T3 cells, 50 μM, 20 min at 37° C., Control 112 ± 21) is reported as 4 ± 2 pg. Besides, in assay [1] (3T3 fibroblasts, ionomycin-induced PGE2), the “effect on PGE2 production (in words)” value is reported as “almost completely inhibited”. Further, the “Area (area below the curve of difference between right and left pad diameter)” value in assay [2] is 6.6 ± 0.92 A.U. Also, in assay [2] (versus inflamed control), the “Inhibition of the inflammatory process” value was 15.3%. In assay [3] (human mucosal gastric biopsies, agents 10 μM, 20 min at 37° C., Control 115 ± 26, mean ± S.D., three experiments), the “pg PGE2/mg (weight)” value is reported as 7 ± 2 pg PGE2/mg. The “effect on mucosal PGE2 synthesis (in words)” value in assay [3] (normal mucosal gastric biopsies, ex vivo) was “completely blocked”.
Broadly, the IC50 is the concentration that gives 50% inhibition. For the compound `O=C(O)COC(=O)Cc1ccccc1Nc1c(Cl)cccc1Cl` [aceclofenac, reference compound], the “IC50 for L-selectin down-regulation” value in assay [4] was 5 µg/mL. Besides, in assay [5], the IC50 is 14.1 µM.
